{
  "source": "patent US20100210597A1",
  "about": "“C21-Deoxy Ansamycin Derivatives as Antitumor Agents” (priority 2007, published 2010)",
  "key": {"CNXF 498NL": {"tested_on": "CNXF 498NL", "test": "Monolayer proliferation assay (modified propidium iodide), CNXF 498NL", "type": "cell-based, human", "conditions": "average of 2 experiments", "protocol": "In vitro evaluation of compounds for anticancer activity in a panel of human tumour cell lines in a monolayer proliferation assay was carried out at the Oncotest Testing Facility, Institute for Experimental Oncology, Oncotest GmbH, Freiburg.\nThe Oncotest cell lines are established from human tumor xenografts as described by Roth et al., (1999). The origin of the donor xenografts is described by Fiebig et al., (1999). Other cell lines are either obtained from the NCl (DU145, MCF-7) or purchased from DSMZ, Braunschweig, Germany.\nAll cell lines, unless otherwise specified, are grown at 37° C. in a humidified atmosphere (95% air, 5% CO2) in a ‘ready-mix’ medium containing RPMI 1640 medium, 10% fetal calf serum, and 0.1 mg/mL gentamicin (PAA, Cölbe, Germany).\nA modified propidium iodide assay was used to assess the effects of the test compound(s) on the growth of six human tumour cell lines (Dengler et al., (1995)).\nBriefly, cells are harvested from exponential phase cultures by trypsinization, counted and plated in 96 well flat-bottomed microtitre plates at a cell density dependent on the cell line (5-10.000 viable cells/well). After 24 h recovery to allow the cells to resume exponential growth, 0.010 mL of culture medium (6 control wells per plate) or culture medium containing macbecin were added to the wells. Each concentration is plated in triplicate. […] Following 4 days of continuous exposure, cell culture medium with or without test compound was replaced by 0.2 mL of an aqueous propidium iodide (P1) solution (7 mg/L). To measure the proportion of living cells, cells were permeabilized by freezing the plates. After thawing the plates, fluorescence was measured using the Cytofluor 4000 microplate reader (excitation 530 nm, emission 620 nm), giving a direct relationship to the total number of viable cells.\nGrowth inhibition is expressed as treated/control×100 (% T/C).\nIn vitro evaluation of the test compound, 20, for anticancer activity in a panel of human tumour cell lines in a monolayer proliferation assay was carried out as described in the general methods using a modified propidium iodide assay."}, "[1]": {"test": "Whole blood cleavage assay, mouse blood", "type": "in vitro ADME", "conditions": "10 uM, 37° C., two hours", "protocol": "Human whole blood (single donor, batch HBE4534) was obtained from First Link UK Ltd. Mouse whole blood (pool of 10, batch 07-2470) was obtained from Harlan UK. Blood was collected into tubes containing EDTA as anticoagulant and shipped on ice. Blood was used on the day of arrival. In the case of human whole blood incubations were undertaken both on the fresh blood and also after freezing the blood followed by thawing. Control compounds were Lidocaine, Bisacodyl and Simvastatin.\nAll test compounds were incubated at 10 uM in whole blood at 37° C. At selected time points, 0.1 ml of blood was mixed with 0.3 ml of acetonitrile and vortexed immediately. All samples were centrifuged and supernatant were diluted with same volume of deionized water. […] For 20 sample analysis, mass spectrometry monitored both 17 and 20. […]\nThe Half life, for the disappearance of 20, was determined according to the relationship: […]\nBlood cleavage assays were run to confirm that 20 acts as a prodrug and cleaves to produce compound 17 when incubated with human and mouse blood, as described in the general methods. The compound was incubated in human or mouse blood with samples removed over two hours, and analysed by LC MS/MS for presence of 20 and 17 (see FIG. 6). […] Due to the differing responses of 17 and 20 on mass spectrometry it was not possible to quantify the extent of conversion of 20 to 17."}},
  "data": [
    {"smiles": "CO[C@H]1C[C@H](C)Cc2cc(cc(OP(=O)(O)O)c2)NC(=O)/C(C)=C/CC[C@H](C)[C@@H](OC(N)=O)/C(C)=C/[C@H](C)[C@H]1O", "note": "[Compound 20, 4,5-dihydro-11-O-demethyl-15-demethoxy-18,21-didehydro-21-deoxomacbecin-18-phosphate]", "values": [
      {"measurement": "Test/Control (%) at drug concentration (μg/mL)", "setting": "CNXF 498NL; 0.01 μg/mL", "value": 99, "unit": "%"},
      {"measurement": "Test/Control (%) at drug concentration (μg/mL)", "setting": "CNXF 498NL; 0.1 μg/mL", "value": 77, "unit": "%"},
      {"measurement": "Test/Control (%) at drug concentration (μg/mL)", "setting": "CNXF 498NL; 1 μg/mL", "value": 15, "unit": "%"},
      {"measurement": "Test/Control (%) at drug concentration (μg/mL)", "setting": "CNXF 498NL; 10 μg/mL", "value": 16, "unit": "%"},
      {"measurement": "Test/Control (%) at drug concentration (μg/mL)", "setting": "CNXF 498NL; 100 μg/mL", "value": 12, "unit": "%"},
      {"measurement": "conversion in blood", "setting": "[1]", "value": "act as a prodrug and release 17"}
    ]}
  ]
}
